Test results taken from US20220409617A1, “Drug Formulations and Methods of Treatment for Metabolic Disorders” (The Regents of the University of California, priority 2019, published 2022).

What was measured:
[1] = Indirect calorimetry and food intake in metabolic cages; format: in vivo, mouse
Method: To examine the effects of sphingolipid-like compound 893 on whole body metabolism, indirect calorimetry was performed. Male C57BL/6J mice were maintained on the SD or HFD for 10-12 weeks, acclimated to metabolic cages that mimic the home environment, and then treated with vehicle or 120 mg/kg sphingolipid-like compound 893 by gavage at ZT8.5. […] As expected, RER values were lower during both light and dark cycles and diurnal fluctuations in substrate utilization were blunted in HFD-fed mice relative to SD controls (FIGS. 29 & 30). […] Consistent with the pharmacokinetic properties of sphingolipid-like compound 893 (see FIG. 12), RER returned to control values 24 h after sphingolipid-like compound 893 treatment (FIGS. 28 & 29). Animals were similarly responsive to a second treatment with sphingolipid-like compound 893 given 48 h after the first.
Metabolic parameters were measured using the Phenomaster system (TSE Systems Inc., Chesterfield, Mo.). The climate chamber was set to 21° C. and 50% humidity with a 12:12 h light-dark cycle. Mice were singly housed inside the chamber and acclimated for 48 h prior to data collection. VO2, VCO2, and food intake was measured every 27 min. Respiratory exchange ratio (RER) was calculated using the formula RER=VCO2/VO2. Energy expenditure was calculated using the equation EE=1.44(3.941×VO2+1.106×VCO2). In the indirect calorimetry studies in FIGS. 12 to 14, C57BL/6J mice were maintained on the HFD or SD for 10-12 weeks prior to evaluation and were naïve to therapy. Mice were serially evaluated in cohorts of 4 vehicle- and 4 sphingolipid-like compound 893-treated mice using 8 metabolic cages. Treatment was by gavage at ZT8.5, sphingolipid-like compound 893 was administered at 120 mg/kg in water. To evaluate the effect of morning treatment, vehicle or 120 mg/kg sphingolipid-like compound 893 was administered at ZT2 to 18 week old C57BL/6J males on a standard diet. Liquid diet experiments were also performed on 18 week old C57BL/6J males; mice were treated with sphingolipid-like compound 893 at ZT8.5 and food access was restricted at ZT11. Liquid feed (AIN-76, BioServ, Flemington, N.J.) was prepared at 1000 kcal/L in milli-Q water and at ZT12, mice were gavaged with 400 μL (0.4 kcal) of diet, corresponding to approximately 3 h of ad libitum consumption of standard chow. For the pair feeding study, RER was monitored over 12 h in mice maintained on the HFD for 22 weeks (31 weeks of age); pair-fed mice were used after a 48 h wash-out period and provided with the average amount of food they ate over 24 h after sphingolipid-like compound 893 treatment (92.5 mg or 0.4 kcal).
During measurements of one SD cohort (4 vehicle- and 4 sphingolipid-like compound 893-treated mice), a leak in the reference CO2 system was detected, the O2 and CO2 data was censored until the leak was corrected (70-74 h). Feeding and activity measurements were not compromised and were still analyzed. Occasionally, uneaten food was found on the floor of the cage precluding use of the hopper sensor to accurately monitor food intake. In these instances, food intake data was censored for the prior 24 h period (days 2 and 3 for mouse 8 (SD+sphingolipid-like compound 893) and mouse 8 (SD+vehicle), and day 3 for mouse 8 (HFD+sphingolipid-like compound 893) and mouse 1 (HFD+vehicle)). […] In rare cases, inadvertent pharyngeal administration of gavage material occurred. These mice were not euthanized, but food intake, calorimetry, and activity data from these animals was excluded from the analysis for 1 week after this event (mouse 2 (HFD+sphingolipid-like compound 893) after the second treatment on day 3 and mouse 5 (HFD+sphingolipid-like compound 893) after the first dose on day 1).

[2] = Home-cage feeding study with suboptimal leptin (leptin sensitization); format: in vivo, mouse
Excerpt: Leptin is secreted by adipocytes in proportion to their triglyceride content, signaling to the CNS when peripheral energy stores are full and food consumption should decrease. In HFD-fed mice, chronic increases in adiposity lead to elevations in circulating leptin with no accompanying decrease in food intake, a state that has been termed leptin-resistant. Reducing leptin levels in the blood restores leptin signaling in the hypothalamus (S. Zhao, et al., 2019, cited supra). Thus, the sphingolipid-like compound 893 should function as a leptin-sensitizing agent. To test this model, 18 week old lean, male C57BL/6J mice were treated intraperitoneally with a suboptimal dose of recombinant leptin at ZT8.5 and food intake and body weight measured over the next 18 h. […] In summary, the reduction in food intake in sphingolipid-like compound 893-treated mice is consistent with the reversal of mitochondrial fragmentation in the hypothalamus and likely due in part to the re-sensitization of anorexigenic POMG neurons to leptin when plasma leptin levels are decreased.
Mice were singly housed and allowed to acclimate for 72 h before food intake was monitored. Food consumption was determined by monitoring the weight of food in the hopper. Initial food and body weight measurements were taken at ZT9 and final measurements were taken 16 h later to capture the active period where most consumption occurred. Home cage feeding studies were performed with C57BL/6J mice maintained on a HFD for 24 weeks (33 weeks of age), or ob/ob mice at 8 weeks of age. Mice received vehicle or 120 mg/kg sphingolipid-like compound 893 by gavage at ZT8.5. For experiments involving leptin, 18 week old, SD fed (16% kcal from fat, 2020×, Envigo) C57BL/6J mice received vehicle or 120 mg/kg sphingolipid-like compound 893 by gavage at ZT8.5. […] One ob/ob mouse died during Echo MRI for unknown reasons after 6 d of treatment with sphingolipid-like compound 893; data from this mouse was analyzed prior to death.

AKT = settings: cited from earlier work
[3] = mice on SD or HFD 10-12 weeks, 120 mg/kg p.o. at ZT8.5

Compound: CCCCCCCCc1ccc([C@H]2CCN[C@@H]2CO)cc1.Cl [compound 893]
- Food intake and RER, morning dosing ([1]; 120 mg/kg at ZT2, mice on standard diet): still decreased both food intake and RER
- Activity (XY beam breaks) ([1]; 120 mg/kg p.o. at ZT8.5): trend towards reduced activity
- Energy expenditure (Weir formula) ([1]; 120 mg/kg p.o. at ZT8.5): not significantly affected
- Time after treatment at which RER returned to control values ([1]; 120 mg/kg p.o. at ZT8.5): 24 h
- Food intake and body weight loss, HFD for 22 weeks ([1]; mice on HFD 22 weeks, 120 mg/kg once at ZT8.5): the suppression of food intake and body weight loss appeared to increase
- Food intake in metabolic caging [1, 3]: reduced food intake
- Respiratory exchange ratio (RER) [1, 3]: reduced the RER in both HFD- and SD-fed mice
- Food intake and body weight over 18 h, single agent ([2]; lean chow-fed 18 week old mice, leptin 2 mg/kg i.p. or 893 120 mg/kg by gavage): trend towards reduced food intake and body weight
- Food intake and body weight over 18 h, combined with leptin ([2]; lean chow-fed mice, 893 120 mg/kg by gavage plus leptin 2 mg/kg i.p.): statistically significant decrease in food intake and body weight
- Effect on AKT activity (AKT): does not reduce AKT activity
